This is an account of results in PMC9736157 (Molecules, 2022).

What is called IC50 is the concentration that gives 50% inhibition.

For one assay, the target named is T1, B-RAF (V600E) (Homo sapiens, UniProt P15056, V600E).
T1 construct: purchased BPS Bioscience
Description: BRAF^V600E inhibition assay (B-RAF (V600E) Kinase Assay Kit, Kinase-Glo MAX). In kind it is biochemical. Particulars: isolated BRAF^V600E, ATP 10 μM, 30 °C, 45 min; three experiments in duplicate; read-out: BRAF (V600E) Kinase Activity IC50 (nM ± SEM). As to the method:
In a 96-well plate, the different inhibitor solutions in DMSO were mixed with Buffer, ATP (10 μM) and Raf substrate. […] After a 15 min delay to equilibrate plate temperature, 50 μL of Kinase-Glo Max was added in each well, and the luminescence was measured according to supplier’s instruction. The results, reported as IC50 ± S.E.M., were calculated with GrapPad Prism 7 and derive from three different experiments run in duplicate.
(In general: Kinase-Glo measures the ATP left after a reaction by luminescence.)

A further assay concerns A375 melanoma cell line. The experiment in a line: Antiproliferative activity, CellTiter-Glo, A375. In kind it is cell-based. The following applies: Homo sapiens, A-375, A375, 72 h. As to the method: Based on the previous preliminary tests, we sought to investigate the ability of synthesized compounds 5–15 and reference 1 in inhibiting the proliferation of BRAF^V600E mutant cancer cells. A first screening was conducted in A375 melanoma cell lines (Table 1, Figure S2). Encorafenib was employed for comparison.
(§1) The ability of compounds 5, 10, 11, 15–selected based on their chemical diversity–to inhibit cell proliferation was then tested both in A375 and in Colo205 cancer cell lines. […] P5B was obtained by joining the BRAF inhibitor BI 882370 to pomalidomide through a five PEG unit spacer (Figure S3). In compound P5B, the linker length was of 17 atoms, the same length of the spacer used to generate our compound 10. A375 and Colo205 cells were treated for 72 h with compounds 5, 10, 11, 15, and P5B, and the antiproliferative activity was measured by a luminescent ATP-based assay, which determines the number of viable cells based on their metabolic activity. […] However, P5B was more efficient in inhibiting tumor cell viability in comparison with the other selected compounds.
(§2) Cell viability was evaluated by means of CellTiter-Glo Luminescent Assay (Promega), which allows users to measure the ATP in the cell supernatant. The assay was performed according to manufacturer’s instructions. In brief, 4.10^3 A375 or Colo205 were seeded into 96-well plates and allowed to adhere at the wall overnight. Cells were treated for 72 h with BRAF inhibitor compounds. Then, 90 µL of the cell culture medium was transferred in a white 96-well plate, to which 10 µL of CellTiter-Glo was added before measurement of luminescence. Luminescence was measured by the SPARK M10 (Tecan, Männedorf, Switzerland) plate reader.
Background: In ATP-based viability assays light output follows the ATP content of the culture.

The subject of a further assay is Colo205 cell line. The experiment in a line: Antiproliferative activity, CellTiter-Glo, Colo205. Particulars: Homo sapiens, COLO 205; Colo205, 72 h (Figure 6b); read-out: Antiproliferative activity IC50 (nM ± SEM). In kind it is cell-based. As to the method: as §1, §2
Setting [1] is: first screening (Table 1), read-out: Antiproliferative Activity IC50 ± SEM.
Where [2] appears, read: second set of experiments (Figure 6a), read-out: Antiproliferative activity IC50 (nM ± SEM).

Where two headings read alike, the source gives them in different places.

T1 sequence (P15056 whole entry V600E): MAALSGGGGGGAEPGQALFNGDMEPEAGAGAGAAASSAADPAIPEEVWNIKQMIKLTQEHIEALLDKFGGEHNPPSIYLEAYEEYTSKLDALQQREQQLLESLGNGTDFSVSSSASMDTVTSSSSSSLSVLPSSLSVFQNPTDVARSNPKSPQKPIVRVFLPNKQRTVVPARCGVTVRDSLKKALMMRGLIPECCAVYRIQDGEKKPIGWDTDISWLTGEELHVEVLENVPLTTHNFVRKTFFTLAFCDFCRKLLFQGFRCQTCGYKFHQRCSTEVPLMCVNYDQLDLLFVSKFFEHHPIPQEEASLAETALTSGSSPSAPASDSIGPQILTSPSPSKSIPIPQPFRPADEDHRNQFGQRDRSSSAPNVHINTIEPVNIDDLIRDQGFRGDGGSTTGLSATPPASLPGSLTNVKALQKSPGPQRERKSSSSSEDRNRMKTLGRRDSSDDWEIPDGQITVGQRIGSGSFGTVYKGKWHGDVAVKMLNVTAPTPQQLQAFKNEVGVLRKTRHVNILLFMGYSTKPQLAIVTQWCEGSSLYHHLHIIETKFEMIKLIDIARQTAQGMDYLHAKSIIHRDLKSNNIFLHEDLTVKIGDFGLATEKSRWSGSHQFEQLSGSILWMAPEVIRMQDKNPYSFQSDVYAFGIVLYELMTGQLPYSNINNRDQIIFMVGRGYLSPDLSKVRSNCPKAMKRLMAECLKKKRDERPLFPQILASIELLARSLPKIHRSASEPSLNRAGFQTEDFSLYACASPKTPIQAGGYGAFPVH

For the molecule `CC(C)n1cc(-c2ccnc(NC[C@H](C)NC(=O)CCOCCNc3cccc4c3C(=O)N(C3CCC(=O)NC3=O)C4=O)n2)c(-c2cc(Cl)cc(NS(C)(=O)=O)c2F)n1` (stereo partly drawn) [Compound 6, N-((S)-1-((4-(3-(5-chloro-2-fluoro-3-(methylsulfonamido)phenyl)-1-isopropyl-1H-pyrazol-4-yl)pyrimidin-2-yl)amino)propan-2-yl)-3-(2-((2-(2,6-dioxopiperidin-3-yl)-1,3-dioxoisoindolin-4-yl)amino)ethoxy)propanamide], the IC50 on B-RAF (V600E) is 52 ± 12 nM; in the assay with A375 melanoma cell line (setting [1]), 406.1 ± 2.4 nM.

In the case of `COC(=O)N[C@@H](C)CNc1nccc(-c2cn(C(C)C)nc2-c2cc(Cl)cc(NS(C)(=O)=O)c2F)n1` [encorafenib (1), encorafenib, reference compound], in the assay on A375 melanoma cell line (setting [1]), the IC50 was below 50 nM.

In the case of `CC(C)n1cc(-c2ccnc(NC[C@H](C)NC(=O)CCCNc3cccc4c3C(=O)N(C3CCC(=O)NC3=O)C4=O)n2)c(-c2cc(Cl)cc(NS(C)(=O)=O)c2F)n1` (stereo partly drawn) [Compound 5, N-((S)-1-((4-(3-(5-chloro-2-fluoro-3-(methylsulfonamido)phenyl)-1-isopropyl-1H-pyrazol-4-yl)pyrimidin-2-yl)amino)propan-2-yl)-4-((2-(2,6-dioxopiperidin-3-yl)-1,3-dioxoisoindolin-4-yl)amino)butanamide], the IC50 was found to be 61 ± 10 nM at B-RAF (V600E), 2740 ± 71 nM in the assay on A375 melanoma cell line (setting [1]), 1320 ± 304 nM in the assay with A375 melanoma cell line (setting [2]) and 280 ± 24 nM in the assay with Colo205 cell line.

For the molecule `CC(C)n1cc(-c2ccnc(NC[C@H](C)NC(=O)CCOCCOCCn3cc(COCCOCCNc4cccc5c4C(=O)N(C4CCC(=O)NC4=O)C5=O)nn3)n2)c(-c2cc(Cl)cc(NS(C)(=O)=O)c2F)n1` (stereo partly shown) [Compound 13], the IC50 at B-RAF (V600E) came out at 58 ± 19 nM; in the assay with A375 melanoma cell line (setting [1]), 4100 ± 71.5 nM.

Take `CC(C)n1cc(-c2ccnc(NC[C@H](C)NC(=O)CCOCCOCCNc3cccc4c3C(=O)N(C3CCC(=O)NC3=O)C4=O)n2)c(-c2cc(Cl)cc(NS(C)(=O)=O)c2F)n1` (stereo partly drawn) [Compound 7, N-((S)-1-((4-(3-(5-chloro-2-fluoro-3-(methylsulfonamido)phenyl)-1-isopropyl-1H-pyrazol-4-yl)pyrimidin-2-yl)amino)propan-2-yl)-3-(2-(2-((2-(2,6-dioxopiperidin-3-yl)-1,3-dioxoisoindolin-4-yl)amino)ethoxy)ethoxy)propanamide]: the figures for the IC50 at B-RAF (V600E) and with A375 melanoma cell line (setting [1]) were 66 ± 15 nM and 520 ± 80.5 nM, respectively.

For `CC(C)n1cc(-c2ccnc(NC[C@H](C)NC(=O)CCOCCOCCOCC(=O)Nc3cccc4c3CN(C3CCC(=O)NC3=O)C4=O)n2)c(-c2cc(Cl)cc(NS(C)(=O)=O)c2F)n1` (stereo partly drawn) [Compound 14, N-((S)-1-((4-(3-(5-chloro-2-fluoro-3-(methylsulfonamido)phenyl)-1-isopropyl-1H-pyrazol-4-yl)pyrimidin-2-yl)amino)propan-2-yl)-3-(2-(2-(2-((2-(2,6-dioxopiperidin-3-yl)-1-oxoisoindolin-4-yl)amino)-2-oxoethoxy)ethoxy)ethoxy)propenamide], the IC50 on B-RAF (V600E) turned out to be 88 ± 17 nM; in the assay on A375 melanoma cell line (setting [1]) it was 1046 ± 0.75 nM.

`Cc1ncsc1-c1ccc(CNC(=O)[C@@H]2C[C@@H](O)CN2C(=O)[C@@H](NC(=O)COCCOCCOCCC(=O)N[C@@H](C)CNc2nccc(-c3cn(C(C)C)nc3-c3cc(Cl)cc(NS(C)(=O)=O)c3F)n2)C(C)(C)C)cc1` [Compound 15, (2S,4R)-1-((2S,17S)-2-(tert-butyl)-18-((4-(3-(5-chloro-2-fluoro-3-(methylsulfonamido)phenyl)-1-isopropyl-1H-pyrazol-4-yl)pyrimidin-2-yl)amino)-17-methyl-4,15-dioxo-6,9,12-trioxa-3,16-diazaoctadecanoyl)-4-hydroxy-N-(4-(4-methylthiazol-5-yl)benzyl)pyrrolidine-2-carboxamide]: the IC50 on B-RAF (V600E) turned out to be 78 ± 9 nM; with A375 melanoma cell line (setting [1]) it was 3380 ± 172 nM; with A375 melanoma cell line (setting [2]), 3830 ± 784 nM; with Colo205 cell line, 1230 ± 543 nM.

Turning to `CC(C)n1cc(-c2ccnc(NC[C@H](C)NC(=O)CCOCCOCCn3cc(COCCC(=O)Nc4cccc5c4C(=O)N(C4CCC(=O)NC4=O)C5=O)nn3)n2)c(-c2cc(Cl)cc(NS(C)(=O)=O)c2F)n1` (stereo partly drawn) [Compound 12, N-((S)-1-((4-(3-(5-chloro-2-fluoro-3-(methylsulfonamido)phenyl)-1-isopropyl-1H-pyrazol-4-yl)pyrimidin-2-yl)amino)propan-2-yl)-3-(2-(2-(4-((3-((2-(2,6-dioxopiperidin-3-yl)-1,3-dioxoisoindolin-4-yl)amino)-3-oxopropoxy)methyl)-1H-1,2,3-triazol-1-yl)ethoxy)ethoxy)propanamide], the IC50 at B-RAF (V600E) was determined as 40 ± 4 nM; with A375 melanoma cell line (setting [1]), 732 ± 16 nM.

Regarding `COCCOCCOCCOCCC(=O)N[C@@H](C)CNc1nccc(-c2cn(C(C)C)nc2-c2cc(Cl)cc(NS(C)(=O)=O)c2F)n1` [Compound 54, (S)-N-(1-((4-(3-(5-chloro-2-fluoro-3-(methylsulfonamido)phenyl)-1-isopropyl-1H-pyrazol-4-yl)pyrimidin-2-yl)amino)propan-2-yl)-2,5,8,11-tetraoxatetradecan-14-amide], the IC50 on B-RAF (V600E) was found to be 80 ± 7 nM.

`CC(C)n1cc(-c2ccnc(NC[C@H](C)NC(=O)CCOCCOCCOCCOCCNc3cccc4c3C(=O)N(C3CCC(=O)NC3=O)C4=O)n2)c(-c2cc(Cl)cc(NS(C)(=O)=O)c2F)n1` (stereo partly drawn) [Compound 9, N-((S)-1-((4-(3-(5-chloro-2-fluoro-3-(methylsulfonamido)phenyl)-1-isopropyl-1H-pyrazol-4-yl)pyrimidin-2-yl)amino)propan-2-yl)-1-((2-(2,6-dioxopiperidin-3-yl)-1,3-dioxoisoindolin-4-yl)amino)-3,6,9,12-tetraoxapentadecan-15-amide]: the results for the half-inhibitory concentration (IC50) on B-RAF (V600E) and in the assay with A375 melanoma cell line (setting [1]) were 67 ± 16 nM and 2000 ± 31.8 nM, respectively.
